Data from the kinase profiling compilation of Christmann-Franck et al. (2016).

Assays:
Assay in all cases: KINOMEscan competition binding
Conditions in all cases: compound 10.0 µM
CDK11A (human) = CDK11A (human) (UniProt Q9UQ88)
MAPK7 (human) = MAPK7 (human) (UniProt Q13164)
TNK1 (human) = TNK1 (human) (UniProt Q13470)
PLK3 (human) = PLK3 (human) (UniProt Q9H4B4)
ROS1 (human) = ROS1 (human) (UniProt P08922)
NLK (human) = NLK (human) (UniProt Q9UBE8)
DCLK1 (human) = DCLK1 (human) (UniProt O15075)
Chain of DCLK1 (human) (O15075 whole entry, looked up): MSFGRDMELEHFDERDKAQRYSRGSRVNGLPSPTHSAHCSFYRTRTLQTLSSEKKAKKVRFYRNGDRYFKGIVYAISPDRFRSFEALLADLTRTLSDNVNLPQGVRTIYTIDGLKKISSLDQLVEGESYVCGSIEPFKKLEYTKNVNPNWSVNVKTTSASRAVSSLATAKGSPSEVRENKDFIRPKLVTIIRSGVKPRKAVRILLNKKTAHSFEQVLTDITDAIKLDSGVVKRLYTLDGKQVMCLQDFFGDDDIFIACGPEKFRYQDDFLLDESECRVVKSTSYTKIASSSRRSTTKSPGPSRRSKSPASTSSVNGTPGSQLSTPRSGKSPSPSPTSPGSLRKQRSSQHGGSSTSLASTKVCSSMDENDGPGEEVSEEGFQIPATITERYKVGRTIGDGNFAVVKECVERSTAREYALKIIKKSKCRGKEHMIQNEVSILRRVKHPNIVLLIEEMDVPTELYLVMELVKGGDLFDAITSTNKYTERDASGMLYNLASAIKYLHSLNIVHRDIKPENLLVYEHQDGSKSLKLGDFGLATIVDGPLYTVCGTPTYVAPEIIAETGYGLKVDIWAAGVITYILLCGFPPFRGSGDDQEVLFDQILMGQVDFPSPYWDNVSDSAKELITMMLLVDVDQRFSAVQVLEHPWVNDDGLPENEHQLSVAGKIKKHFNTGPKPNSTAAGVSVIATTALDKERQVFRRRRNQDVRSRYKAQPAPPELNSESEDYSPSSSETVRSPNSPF

PLK1 (human) = PLK1 (human) (UniProt P53350)
Chain of PLK1 (human) (P53350 whole entry, looked up): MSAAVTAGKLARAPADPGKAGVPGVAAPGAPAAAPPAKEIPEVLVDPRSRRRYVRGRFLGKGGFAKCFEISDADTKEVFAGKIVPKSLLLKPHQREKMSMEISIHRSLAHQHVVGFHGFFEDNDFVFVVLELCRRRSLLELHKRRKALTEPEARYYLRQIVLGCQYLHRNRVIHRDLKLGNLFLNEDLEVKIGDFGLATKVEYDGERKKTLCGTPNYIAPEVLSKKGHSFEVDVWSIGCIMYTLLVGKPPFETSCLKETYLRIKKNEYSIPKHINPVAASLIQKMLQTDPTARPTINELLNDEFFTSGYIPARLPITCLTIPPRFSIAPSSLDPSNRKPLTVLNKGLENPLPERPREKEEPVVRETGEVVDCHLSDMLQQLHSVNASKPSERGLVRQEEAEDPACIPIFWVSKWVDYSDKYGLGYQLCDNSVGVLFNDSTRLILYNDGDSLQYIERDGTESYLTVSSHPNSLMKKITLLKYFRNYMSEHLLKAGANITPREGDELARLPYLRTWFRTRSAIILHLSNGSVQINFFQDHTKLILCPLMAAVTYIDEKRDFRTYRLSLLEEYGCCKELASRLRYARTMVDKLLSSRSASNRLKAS

GAK (human) = GAK (human) (UniProt O14976)
PLK4 (human) = PLK4 (human) (UniProt O00444)
TTK (human) = TTK (human) (UniProt P33981)
PIP5K1A (human) = PIP5K1A (human) (UniProt Q99755)
[1] = tested on: ABL1 (human), P00519 [F317I]
Chain of ABL1 (human), P00519 [F317I] (P00519 whole entry F317I, looked up): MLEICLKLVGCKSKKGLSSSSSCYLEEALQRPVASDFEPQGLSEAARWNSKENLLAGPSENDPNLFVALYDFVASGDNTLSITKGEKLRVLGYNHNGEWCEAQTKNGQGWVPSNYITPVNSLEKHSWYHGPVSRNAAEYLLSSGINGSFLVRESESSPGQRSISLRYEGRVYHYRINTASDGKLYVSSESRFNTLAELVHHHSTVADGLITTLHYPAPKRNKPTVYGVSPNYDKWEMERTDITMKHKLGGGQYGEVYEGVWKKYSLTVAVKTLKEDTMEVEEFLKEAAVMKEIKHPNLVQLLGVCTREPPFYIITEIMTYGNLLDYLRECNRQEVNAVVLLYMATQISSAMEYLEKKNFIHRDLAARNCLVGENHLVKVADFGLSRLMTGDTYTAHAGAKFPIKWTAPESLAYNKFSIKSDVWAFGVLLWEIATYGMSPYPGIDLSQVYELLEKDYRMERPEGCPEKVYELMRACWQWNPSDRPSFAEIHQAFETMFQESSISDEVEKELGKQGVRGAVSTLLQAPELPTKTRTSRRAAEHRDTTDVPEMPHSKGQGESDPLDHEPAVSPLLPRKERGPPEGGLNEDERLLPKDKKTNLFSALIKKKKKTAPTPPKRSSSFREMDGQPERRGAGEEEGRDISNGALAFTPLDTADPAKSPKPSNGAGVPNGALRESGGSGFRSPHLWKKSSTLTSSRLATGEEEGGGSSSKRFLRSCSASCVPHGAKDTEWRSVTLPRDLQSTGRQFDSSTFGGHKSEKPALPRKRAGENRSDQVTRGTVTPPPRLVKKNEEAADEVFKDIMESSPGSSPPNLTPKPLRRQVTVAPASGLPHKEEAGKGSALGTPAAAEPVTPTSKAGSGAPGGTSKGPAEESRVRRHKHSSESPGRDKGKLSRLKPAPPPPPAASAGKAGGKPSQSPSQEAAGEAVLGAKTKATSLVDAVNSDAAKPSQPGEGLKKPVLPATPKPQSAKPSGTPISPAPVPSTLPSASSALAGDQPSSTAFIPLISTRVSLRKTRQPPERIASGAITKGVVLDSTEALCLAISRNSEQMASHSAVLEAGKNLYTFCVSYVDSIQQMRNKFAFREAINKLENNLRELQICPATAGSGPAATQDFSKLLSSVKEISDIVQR

RPS6KA6 KD2 (human) = RPS6KA6 KD2 (human) (UniProt Q9UK32)
[2] = tested on: FLT3 (human), P36888 [D835H]
PTK6 (human) = PTK6 (human) (UniProt Q13882)
[3] = tested on: FLT3 (human), P36888 [ITD]
DCLK2 (human) = DCLK2 (human) (UniProt Q8N568)
TNK2 (human) = TNK2 (human) (UniProt Q07912)
Chain of TNK2 (human) (Q07912 whole entry, looked up): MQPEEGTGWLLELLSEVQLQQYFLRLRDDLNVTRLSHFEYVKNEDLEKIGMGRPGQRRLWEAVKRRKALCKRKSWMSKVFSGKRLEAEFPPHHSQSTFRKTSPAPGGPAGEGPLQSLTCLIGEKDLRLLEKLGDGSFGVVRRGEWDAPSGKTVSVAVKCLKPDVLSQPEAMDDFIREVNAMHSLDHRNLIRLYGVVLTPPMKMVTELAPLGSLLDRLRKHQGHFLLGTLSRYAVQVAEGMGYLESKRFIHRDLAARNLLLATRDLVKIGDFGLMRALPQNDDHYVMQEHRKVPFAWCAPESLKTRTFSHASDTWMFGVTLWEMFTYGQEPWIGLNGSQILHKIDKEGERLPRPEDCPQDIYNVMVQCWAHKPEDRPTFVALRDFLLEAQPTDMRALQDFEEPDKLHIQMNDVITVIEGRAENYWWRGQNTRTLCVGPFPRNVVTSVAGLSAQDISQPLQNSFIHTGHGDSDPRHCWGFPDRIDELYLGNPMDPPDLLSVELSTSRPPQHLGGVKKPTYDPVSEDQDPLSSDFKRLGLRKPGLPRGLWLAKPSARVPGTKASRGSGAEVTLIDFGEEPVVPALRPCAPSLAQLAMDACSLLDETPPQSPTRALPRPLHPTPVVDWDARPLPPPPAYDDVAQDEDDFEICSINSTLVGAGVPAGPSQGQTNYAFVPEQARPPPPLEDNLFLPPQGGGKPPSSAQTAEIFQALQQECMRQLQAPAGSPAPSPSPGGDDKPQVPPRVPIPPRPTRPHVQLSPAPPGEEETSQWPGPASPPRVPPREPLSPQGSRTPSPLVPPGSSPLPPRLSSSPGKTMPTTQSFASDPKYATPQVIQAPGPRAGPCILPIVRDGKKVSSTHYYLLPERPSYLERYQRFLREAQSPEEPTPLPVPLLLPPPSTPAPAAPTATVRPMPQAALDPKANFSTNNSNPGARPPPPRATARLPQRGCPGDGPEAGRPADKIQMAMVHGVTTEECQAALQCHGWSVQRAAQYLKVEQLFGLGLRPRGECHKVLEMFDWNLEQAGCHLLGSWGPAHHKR

[4] = tested on: FLT3 (human), P36888 [N841I]
RPS6KA1 KD2 (human) = RPS6KA1 KD2 (human) (UniProt Q15418)
DCLK3 (human) = DCLK3 (human) (UniProt Q9C098)
FLT3 (human) = FLT3 (human) (UniProt P36888)
[5] = tested on: FLT3 (human), P36888 [K663Q]
MYLK4 (human) = MYLK4 (human) (UniProt Q86YV6)
[6] = tested on: FLT3 (human), P36888 [D835Y]
CAMK2D (human) = CAMK2D (human) (UniProt Q13557)
Chain of CAMK2D (human) (Q13557 whole entry, looked up): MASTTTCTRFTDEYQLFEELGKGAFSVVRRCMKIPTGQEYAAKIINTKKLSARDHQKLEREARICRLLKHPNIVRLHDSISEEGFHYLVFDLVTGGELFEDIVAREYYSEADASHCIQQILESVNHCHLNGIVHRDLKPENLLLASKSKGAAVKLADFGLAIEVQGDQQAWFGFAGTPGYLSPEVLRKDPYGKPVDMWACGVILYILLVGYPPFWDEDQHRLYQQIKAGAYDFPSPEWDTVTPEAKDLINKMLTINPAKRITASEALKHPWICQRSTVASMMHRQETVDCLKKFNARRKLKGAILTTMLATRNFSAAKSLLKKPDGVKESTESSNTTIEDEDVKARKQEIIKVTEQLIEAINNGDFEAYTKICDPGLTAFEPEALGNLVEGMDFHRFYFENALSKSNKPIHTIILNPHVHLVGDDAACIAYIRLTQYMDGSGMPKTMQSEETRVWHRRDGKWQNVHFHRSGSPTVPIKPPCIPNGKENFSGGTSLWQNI

CAMK2G (human) = CAMK2G (human) (UniProt Q13555)
CAMKK2 (human) = CAMKK2 (human) (UniProt Q96RR4)
PIK3C2B (human) = PIK3C2B (human) (UniProt O00750)

Chain of MAPK7 (human) (Q13164 whole entry, looked up): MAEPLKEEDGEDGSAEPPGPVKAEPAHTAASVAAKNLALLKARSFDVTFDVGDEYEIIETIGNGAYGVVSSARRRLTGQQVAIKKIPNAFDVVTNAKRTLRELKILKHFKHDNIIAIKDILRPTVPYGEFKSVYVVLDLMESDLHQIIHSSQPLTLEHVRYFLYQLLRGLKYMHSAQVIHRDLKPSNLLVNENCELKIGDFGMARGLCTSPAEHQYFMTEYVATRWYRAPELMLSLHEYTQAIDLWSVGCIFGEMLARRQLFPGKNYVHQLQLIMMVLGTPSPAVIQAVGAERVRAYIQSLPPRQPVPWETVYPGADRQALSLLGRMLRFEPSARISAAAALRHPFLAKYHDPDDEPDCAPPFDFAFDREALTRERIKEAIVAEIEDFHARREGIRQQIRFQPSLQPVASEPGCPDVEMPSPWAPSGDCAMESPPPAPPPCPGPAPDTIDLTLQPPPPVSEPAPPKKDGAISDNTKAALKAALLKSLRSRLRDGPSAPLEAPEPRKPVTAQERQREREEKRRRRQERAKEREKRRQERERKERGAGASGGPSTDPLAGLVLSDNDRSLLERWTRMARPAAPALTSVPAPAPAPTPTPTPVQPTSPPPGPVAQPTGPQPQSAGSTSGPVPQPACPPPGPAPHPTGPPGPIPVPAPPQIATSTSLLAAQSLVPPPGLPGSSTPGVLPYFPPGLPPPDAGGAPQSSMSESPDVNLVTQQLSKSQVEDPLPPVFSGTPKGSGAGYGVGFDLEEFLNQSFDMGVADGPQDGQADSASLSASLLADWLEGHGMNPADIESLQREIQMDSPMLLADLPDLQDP

CNS(=O)(=O)c1ccc(-c2ccc(C=C3C(=O)NC(=O)NC3=O)o2)cc1
residual activity (CDK11A (human)): 28%

COc1cc(N2CCC(C(N)=O)CC2)ccc1Nc1ncc2c(n1)N(C1CCCC1)[C@@H]1CCC[C@@H]1C(=O)N2C
kinase still bound, per cent of control (MAPK7 (human)): 0.1%
kinase still bound, per cent of control (TNK1 (human)): 18%
kinase still bound, per cent of control (PLK3 (human)): 4.3%
kinase still bound, per cent of control (ROS1 (human)): 31%
kinase still bound, per cent of control (NLK (human)): 31%
kinase still bound, per cent of control (DCLK1 (human)): 15%
kinase still bound, per cent of control (PLK1 (human)): 19%
kinase still bound, per cent of control (GAK (human)): 12%
kinase still bound, per cent of control (PLK4 (human)): 28%
kinase still bound, per cent of control (TTK (human)): 10%

CC(C)Oc1cc(N2CCN(C)CC2)ccc1Nc1ncc2c(n1)N(C)c1ccccc1C(=O)N2
kinase still bound, per cent of control (PIP5K1A (human)): 22%
kinase still bound, per cent of control [1]: 26%
kinase still bound, per cent of control (MAPK7 (human)): 29%
kinase still bound, per cent of control (RPS6KA6 KD2 (human)): 21%
kinase still bound, per cent of control [2]: 14%
kinase still bound, per cent of control (PTK6 (human)): 2.6%
kinase still bound, per cent of control [3]: 2.4%
kinase still bound, per cent of control (DCLK2 (human)): 5.3%
kinase still bound, per cent of control (DCLK1 (human)): 1.2%
kinase still bound, per cent of control (TNK2 (human)): 6.5%
kinase still bound, per cent of control [4]: 0.6%
kinase still bound, per cent of control (RPS6KA1 KD2 (human)): 14%
kinase still bound, per cent of control (DCLK3 (human)): 8.1%
kinase still bound, per cent of control (FLT3 (human)): 10%
kinase still bound, per cent of control [5]: 10%
kinase still bound, per cent of control (MYLK4 (human)): 2.1%
kinase still bound, per cent of control [6]: 2.2%

Nc1cnc(/C=C/c2ccc(-c3ccc(S(N)(=O)=O)cc3)o2)cn1
kinase still bound, per cent of control (CAMK2D (human)): 31%
kinase still bound, per cent of control (CAMK2G (human)): 34%
kinase still bound, per cent of control (CAMKK2 (human)): 28%
kinase still bound, per cent of control (PIK3C2B (human)): 31%
